Where a name gives a salt, the structure may show the parent alone.
How the values were obtained:
Type in all cases: physicochemical
[1] = Solid state (thermolytic) stability of TBR-760 salt forms, open container, UPLC peak purity and appearance; settings: for Purity, T = 2 wk / Purity, T = 4 wk / Purity, Control: UPLC peak purity; for Purity, Control / Appearance, Control: stored at -20° C.
Procedure: Each TBR-760 salt was further evaluated for thermolytic stability over time by setting up three different exposure conditions (25° C. at 60% relative humidity (RH); 40° C. at 75% RH; or 60° C. with open and closed container systems (open dish/closed dish). Approximately 50 mg of each salt form was weighed in a nitrogen-flushed glove box for use in the studies. All samples were stored at −20° C. in a good laboratory practice (GLP) freezer both before and after exposure to the indicated conditions.
The stability of each salt form was assessed by monitoring the post-exposure drug peak purity and by evaluating the post-exposure visual appearance of the salt. The samples were removed from the exposure conditions and allowed to equilibrate to ambient conditions for 15-20 mins. An appropriate amount of each sample was weighed for analysis and dissolved in diluent (deionized water containing 0.1% TFA) to obtain a stock concentration of 1 mg/mL. The stock solution was then diluted to 0.125 mg/mL in an HPLC vial using diluent and the samples were run on a Waters Acquity UPLC system using the parameters shown in Table 4.

[2] = Photostability of TBR-760 salt forms (ICH Q1B, visible and UV light), appearance and UPLC purity; settings: for Purity, UV-exposed / Purity, Control / Purity, Dark Ctrl-UV / Purity, Dark Crtl-Light / Purity, Light-exposed / degradation upon exposure to visible or UV light, in words: UPLC; for Purity, UV-exposed / Appearance, UV-exposed: UV 200 watt hours/square meter; for Purity, UV-exposed / Purity, Light-exposed / Appearance, UV-exposed / Appearance, Light-exposed: clear sealed vial; for Purity, Control / Appearance, Control: control in sealed amber vial at -20° C.; for Purity, Dark Ctrl-UV / Appearance, Dark Ctrl-UV: dark control in UV chamber; for Purity, Dark Crtl-Light / Appearance, Dark Crtl-Light: dark control in visible light chamber; for Purity, Light-exposed / Appearance, Light-exposed: visible light 1.2 million lux hours; for Appearance, Dark Ctrl-UV / Appearance, Dark Crtl-Light: amber vial wrapped in aluminum foil; for degradation upon exposure to visible or UV light, in words: visible and UV light
Source text: In order to evaluate the light sensitivity and stability of TBR-760 chimeric peptide salts, all five salt forms were exposed to ultraviolet (UV) and visible light according to International Council for Harmonisation of Technical Requirements for Pharmaceuticals for Human Use (ICH) guideline Q1B for photostability testing. In brief, a Caron 6540-1 photostability chamber unit with separate UV and light chambers was used for the studies. Visible light exposure was 1.2 million lux hours and UV exposure was 200 watt hours/square meter.
Samples were placed in clear, sealed vials and stored in the appropriate chamber alongside dark controls in amber colored vials wrapped in aluminum foil. Control samples were stored in sealed amber vials at −20° C. The appearance of exposed samples was examined visually before being analyzed via UPLC.

[3] = Thermogravimetric analysis (TGA) of TBR-760 salt forms; settings: ramp 5.0° C. per minute from 25 to 400° C.
Procedure: Thermogravimetric analyses (TGA) were performed on all TBR-760 salt forms to evaluate thermal stability of each salt form. Studies were performed using a TGA-Q500 thermogravimetric analyzer (TA Instruments). The weight of each compound was measured while the temperature was increased at a ramp rate of 5.0° C. per minute from 25 to 400° C. […] The weight loss may be indicative of loss of adsorbed moisture, entrained solvent or volatile impurities. Decomposition of the compound appears to start at about 234° C. (sulfate salt), 245° C. (chloride salt), 252° C. (tosylate salt), and 255° C. (mesylate salt). For the acetate salt, a further ˜5% loss of weight between 110° C. and 200° C. was observed, indicating loss of volatile acetate ions over that temperature range (FIG. 8).

[4] = 25° C. at 60% RH, open container
[5] = 40° C. at 75% RH, open container

## CCCN1C[C@H](CSCC(=O)NCCCC[C@@H](NC(=O)CSC[C@@H]2C[C@@H]3c4cccc5[nH]cc(c45)C[C@H]3N(CCC)C2)C(=O)N[C@H]2CSSC[C@@H](C(=O)N[C@H](C(N)=O)[C@@H](C)O)NC(=O)[C@H](CC)NC(=O)[C@H](CCCCN)NC(=O)[C@@H](Cc3c[nH]c4ccccc34)NC(=O)[C@H](Cc3ccc(O)cc3)NC2=O)C[C@@H]2c3cccc4[nH]cc(c34)C[C@H]21 [TBR-760 mesylate, Dop2-D-Lys(Dop2)-cyclo[Cys-Tyr-D-Trp-Lys-Abu-Cys]-Thr-NH2]
[1]; [4]
  Appearance, T = 2 wk: White
  Appearance, T = 4 wk: White
  Appearance, T = 3 d: White
  Purity, T = 2 wk: 98.14
  Purity, T = 4 wk: 97.77
[1]; 40° C. at 75% RH and 60° C., 2 and 4 weeks
  stability compared with the other salt forms: significantly more stable
[1]; [5]
  Appearance, T = 2 wk: White
  Appearance, T = 4 wk: White
  Appearance, T = 3 d: White
  Purity, T = 2 wk: 97.49
  Purity, T = 4 wk: 97.35
[1]; 60° C., open dish
  Appearance, T = 2 wk: White
  Appearance, T = 4 wk: White
  Appearance, T = 3 d: White
  Purity, T = 2 wk: 97.56
  Purity, T = 4 wk: 97.17
[1]
  Purity, Control: 98.39
  Appearance, Control: White
[2]
  Purity, UV-exposed: 96.67
  Purity, Control: 98.39
  Purity, Dark Ctrl-UV: 98.35
  Purity, Dark Crtl-Light: 98.46
  Purity, Light-exposed: 95.3
  Appearance, Control: white
  Appearance, Dark Ctrl-UV: white
  Appearance, Dark Crtl-Light: white
  degradation upon exposure to visible or UV light, in words: more resistant to degradation than TBR-760 acetate
[2]; listed as Mesylate
  Appearance, UV-exposed: off-white
  Appearance, Light-exposed: off-white
[2]; listed as mesylate
  Appearance, UV-exposed: white to off-white
  Appearance, Light-exposed: white to off-white
[3]; listed as mesylate salt
  TGA start of decomposition: ~255 °C

## CCCN1C[C@H](CSCC(=O)NCCCC[C@@H](NC(=O)CSC[C@@H]2C[C@@H]3c4cccc5[nH]cc(c45)C[C@H]3N(CCC)C2)C(=O)N[C@H]2CSSC[C@@H](C(=O)N[C@H](C(N)=O)[C@@H](C)O)NC(=O)[C@H](CC)NC(=O)[C@H](CCCCN)NC(=O)[C@@H](Cc3c[nH]c4ccccc34)NC(=O)[C@H](Cc3ccc(O)cc3)NC2=O)C[C@@H]2c3cccc4[nH]cc(c34)C[C@H]21 [TBR-760 sulfate, Dop2-D-Lys(Dop2)-cyclo[Cys-Tyr-D-Trp-Lys-Abu-Cys]-Thr-NH2]
[1]; [4]
  Appearance, T = 2 wk: White
  Appearance, T = 4 wk: White
  Appearance, T = 3 d: White
  Purity, T = 2 wk: 97.34
  Purity, T = 4 wk: 97.75
[1]; [5]
  Appearance, T = 2 wk: White
  Appearance, T = 4 wk: White
  Appearance, T = 3 d: White
  Purity, T = 2 wk: 97.08
  Purity, T = 4 wk: 97.3
[1]; 60° C., open dish
  Appearance, T = 2 wk: White
  Appearance, T = 4 wk: White
  Appearance, T = 3 d: White
  Purity, T = 2 wk: 93.7
  Purity, T = 4 wk: 92.01
[1]
  Purity, Control: 98.04
  Appearance, Control: White
[1]; two weeks at 60° C., open dish, UPLC, listed as sulfate salt
  additional degradants in chromatogram versus control: more than 10
[2]; listed as Sulphate
  Purity, UV-exposed: 96.24
  Purity, Control: 98.04
  Purity, Dark Ctrl-UV: 98.17
  Purity, Dark Crtl-Light: 98.19
  Purity, Light-exposed: 94.82
  Appearance, UV-exposed: off-white
  Appearance, Light-exposed: white
[2]
  Appearance, UV-exposed: white to off-white
  Appearance, Control: white
  Appearance, Dark Ctrl-UV: white
  Appearance, Dark Crtl-Light: white
  degradation upon exposure to visible or UV light, in words: more resistant to degradation than TBR-760 acetate
  Appearance, Light-exposed: no visible discoloration
[3]; listed as sulfate salt
  TGA start of decomposition: about 234 °C

— US20210338782A1, “STORAGE STABLE SOMATOSTATIN-DOPAMINE CHIMERIC COMPOUNDS AND SALT FORMS THEREOF” (Cydan II, Inc., priority 2019, published 2021)
